Earlier results as cited in PubChem BioAssay AID1259409 (Chemical Carcinogenesis Research Information System (CCRIS), 2018).
Several values for one entry are separate records, joined by “and”; a condition that tells them apart may be missing. Equal values may be shown once.

Test system: rodent chemically induced tumor inhibition, incidence and multiplicity
Test: CCRIS tumor inhibitor studies

For `Cc1ccc(-c2cc(C(F)(F)F)nn2-c2ccc(S(N)(=O)=O)cc2)cc1`, the “tumour outcome (control, treated, inhibition, significance)” value (Carcinogen: N-BUTYL-N-N(4-4-HYDROXYBUTYL)-NITROSAMINE [3817-11-6], Dose [Inhibitor]: 200 MG/KG IN DIET FOR 36 WK BEGINNING 1 WK PRIOR TO FIRST CARCINOGEN DOSE (STUDY DURATION: 36 WK), Route [Inhibitor]: ORAL, Species: MOUSE, Strain/Sex: B6D2F1/MALE, Target Tissue: Type of Lesion: URINARY BLADDER: TUMOR, Dose [Carcinogen]: 7.5 MG IN 0.1 ML 20% ETHANOL 1X/WK FOR 12 WK (STUDY DURATION: 36 WK), Promoter: NONE) is given as 51%, 29%, 43%, significance level not shown, the “tumour outcome (control, treated, inhibition, significance)” value (Carcinogen: N-BUTYL-N-N(4-4-HYDROXYBUTYL)-NITROSAMINE [3817-11-6], Dose [Inhibitor]: 500 MG/KG IN DIET FOR 27 WK BEGINNING 1 WK POST LAST CARCINOGEN DOSE (STUDY DURATION: 8 MONTHS), Route [Inhibitor]: ORAL, Species: RAT, Strain/Sex: F344/FEMALE, Target Tissue: Type of Lesion: URINARY BLADDER: TUMOR, Dose [Carcinogen]: 150 MG IN 0.5 ML 20% ETHANOL 2X/WK FOR 8 WK (STUDY DURATION: 8 MONTHS), Promoter: NONE) is given as 57%, 4%, 93%, significance level not shown and the “tumour outcome (control, treated, inhibition, significance)” value (Carcinogen: N-BUTYL-N-N(4-4-HYDROXYBUTYL)-NITROSAMINE [3817-11-6], Dose [Inhibitor]: 500 MG/KG IN DIET FOR 36 WK BEGINNING 1 WK PRIOR TO FIRST CARCINOGEN DOSE (STUDY DURATION: 36 WK), Route [Inhibitor]: ORAL, Species: MOUSE, Strain/Sex: B6D2F1/MALE, Target Tissue: Type of Lesion: URINARY BLADDER: TUMOR, Dose [Carcinogen]: 7.5 MG IN 0.1 ML 20% ETHANOL 1X/WK FOR 12 WK (STUDY DURATION: 36 WK), Promoter: NONE) is given as 51%, 24%, 53%, significance level not shown. The “tumour outcome (control, treated, inhibition, significance)” value (Carcinogen: N-BUTYL-N-N(4-4-HYDROXYBUTYL)-NITROSAMINE [3817-11-6], Dose [Inhibitor]: 500 MG/KG IN DIET FOR 36 WK BEGINNING 1 WK PRIOR TO FIRST CARCINOGEN DOSE (STUDY DURATION: 36 WK), Route [Inhibitor]: ORAL, Species: RAT, Strain/Sex: F344/FEMALE, Target Tissue: Type of Lesion: URINARY BLADDER: TUMOR, Dose [Carcinogen]: 150 MG IN 0.5 ML 20% ETHANOL 2X/WK FOR 8 WK (STUDY DURATION: 36 WK), Promoter: NONE) was 17/30 (57%), 4/28 (14%), 75%, significance level not shown, the “tumour outcome (control, treated, inhibition, significance)” value (Carcinogen: N-BUTYL-N-N(4-4-HYDROXYBUTYL)-NITROSAMINE [3817-11-6], Dose [Inhibitor]: 1000 MG/KG IN DIET FOR 27 WK BEGINNING 1 WK POST LAST CARCINOGEN DOSE (STUDY DURATION: 8 MONTHS), Route [Inhibitor]: ORAL, Species: RAT, Strain/Sex: F344/FEMALE, Target Tissue: Type of Lesion: URINARY BLADDER: TUMOR, Dose [Carcinogen]: 150 MG IN 0.5 ML 20% ETHANOL 2X/WK FOR 8 WK (STUDY DURATION: 8 MONTHS), Promoter: NONE) was 57%, 0%, 100%, significance level not shown and the “tumour outcome (control, treated, inhibition, significance)” value (Carcinogen: N-BUTYL-N-N(4-4-HYDROXYBUTYL)-NITROSAMINE [3817-11-6], Dose [Inhibitor]: 1000 MG/KG IN DIET FOR 36 WK BEGINNING 1 WK PRIOR TO FIRST CARCINOGEN DOSE (STUDY DURATION: 36 WK), Route [Inhibitor]: ORAL, Species: RAT, Strain/Sex: F344/FEMALE, Target Tissue: Type of Lesion: URINARY BLADDER: TUMOR, Dose [Carcinogen]: 150 MG IN 0.5 ML 20% ETHANOL 2X/WK FOR 8 WK (STUDY DURATION: 36 WK), Promoter: NONE) was 17/30 (57%), 6/29 (21%), 63%, significance level not shown. The “tumour outcome (control, treated, inhibition, significance)” value (Carcinogen: N-BUTYL-N-N(4-4-HYDROXYBUTYL)-NITROSAMINE [3817-11-6], Dose [Inhibitor]: 1250 MG/KG IN DIET FOR 36 WK BEGINNING 1 WK PRIOR TO FIRST CARCINOGEN DOSE (STUDY DURATION: 36 WK), Route [Inhibitor]: ORAL, Species: MOUSE, Strain/Sex: B6D2F1/MALE, Target Tissue: Type of Lesion: URINARY BLADDER: TUMOR, Dose [Carcinogen]: 7.5 MG IN 0.1 ML 20% ETHANOL 1X/WK FOR 12 WK (STUDY DURATION: 36 WK), Promoter: NONE) was 51%, 12%, 76%, significance level not shown and the outcome (Carcinogen: N-nitrosodiethylamine (55-18-5), Dose [Inhibitor]: 1500 mg/kg in diet for 38 wk, study duration 38 wk, Route [Inhibitor]: Oral, Species: Rat, Strain/Sex: Wistar/Male, Target Tissue: Type of Lesion: Liver: Neoplasia, Dose [Carcinogen]: 100 mg/l in drinking water for 4 mo, Promoter: None) was 91.7, 65.2, p<0.05.

For `CC(C)[C@H]1C=C[C@H](O)CC1`, the “tumour outcome (control, treated, inhibition, significance)” value (Carcinogen: 7,12-DIMETHYLBENZ[A]ANTHRACENE, 57-97-6, Dose [Inhibitor]: 0, 12 NMOL PER REPEATED APPLICATION FOR 20 WK (STUDY DURATION: 20 WK), Route [Inhibitor]: DERMAL, Species: MOUSE, Strain/Sex: CD-1/FEMALE, Target Tissue: Type of Lesion: SKIN: TUMOR, Dose [Carcinogen]: 100 UG ONCE, Promoter: OKADAIC ACID, 78111-17-8) is listed as 87%, 53%, 39%, not calculated.

For `O=C(O)/C=C/c1ccccc1`, the “tumour outcome (control, treated, inhibition, significance)” value (Carcinogen: BENZO[A]PYRENE, 50-32-8, Dose [Inhibitor]: 0.06 MMOL/G OF DIET DAILY STARTING 7 D BEFORE AND CONTINUING THROUGH 3 D AFTER CARCINOGEN TREATMENT FOLLOWED BY OBSERVAT, Route [Inhibitor]: ORAL, Species: MOUSE, Strain/Sex: ICR/FEMALE, Target Tissue: Type of Lesion: FORESTOMACH: NEOPLASM, Dose [Carcinogen]: 1 MG IN 0.2 ML CORN OIL 2/WK FOR 4 WK, Promoter: NONE USED) is listed as 97%, 100%, -3%, not significant and 100%, 94%, 6%, not significant.
